# Assays:
# [1] = test system: Leishmania major; assay: Antileishmanial activity against promastigote form of Leishmania major Freidlin assessed as reduction in parasite growth incubated for 72 hrs by alamar blue dye based fluorescence analysis; format: functional, organism-based
# [2] = test system: Leishmania donovani; assay: Antileishmanial activity against promastigote form of Leishmania donovani assessed as reduction in parasite growth incubated for 72 hrs by alamar blue dye based fluorescence analysis; format: functional, organism-based
# [3] = test system: Trypanosoma cruzi; assay: Antitrypanosomal activity against epimastigote form of Trypanosoma cruzi CL Brener assessed as reduction in parasite growth incubated for 72 hrs by alamar blue dye based fluorescence analysis; format: functional, organism-based
# [4] = test system: HeLa; assay: Cytotoxicity against human HeLa cells incubated for 72 hrs by alamar blue cell viability assay; format: functional, cell-based
# [5] = test system: Trypanosoma brucei; assay: Antitrypanosomal activity against bloodstream trypomastigote form of Trypanosoma brucei Lister 427 assessed as reduction in parasite growth incubated for 72 hrs by alamar blue dye based fluorescence analysis; format: functional, organism-based; details: Lister 427, 72 h
# [6] = test system: Leishmania donovani; assay: Antileishmanial activity against Leishmania donovani axenic amastigotes assessed as reduction in parasite growth incubated for 72 hrs by alamar blue dye based fluorescence analysis; format: functional, organism-based
# [7] = test system: THP-1; assay: Cytotoxicity against human THP-1 cells incubated for 72 hrs by alamar blue cell viability assay; format: functional, cell-based; details: THP-1, 72 h
# [8] = test system: Leishmania donovani; assay: Antileishmanial activity against Leishmania donovani amastigotes infected in human THP-1 cells assessed as reduction in parasite growth incubated for 72 hrs by alamar blue dye based fluorescence analysis; format: functional, organism-based; details: THP-1, 72 h
# [9] = Selectivity ratio of EC50 for antileishmanial activity against Leishmania donovani amastigotes infected in human THP-1 cells to EC50 for cytotoxicity against human THP-1 cells; format: functional
SMILES,EC50 [1] [µM],EC50 [2] [µM],EC50 [3] [µM],EC50 [4] [µM],EC50 [5] [µM],EC50 [6] [µM],EC50 [7] [µM],EC50 [8] [µM],Ratio EC50 [9]
CSCCC(=O)N1CCC[C@H]1C(=O)O,16.8,13.5,35.2,> 250,28.2,,,,
CSC[C@@H](C)C(=O)N1CCC[C@H]1C(=O)O,11.6,8.64,30.2,> 250,26.3,2.14,> 250,4.21,50
COC(=O)[C@@H]1CCCN1C(=O)[C@H](C)CSC,5.3,2.04,15.6,> 250,13.2,,,,
N=C(N)c1ccc(OCCCCCOc2ccc(C(=N)N)cc2)cc1 [PENTAMIDINE],,,,,0.002,,,,
COC(=O)[C@@H]1CCCN1C(=O)[C@H](C)CSCc1ccccc1,8.65,3.98,30,> 250,32.9,,,,
COC(=O)[C@H]1CCCN1C(=O)CCSC,3.1,2.68,33.6,> 250,5.94,,,,
COC(=O)[C@@H]1CCCN1C(=O)[C@H](C)CS,7.29,2.81,22.7,> 250,15.2,,,,
COC(=O)[C@@H]1CCCN1C(=O)CCS,7.02,5.77,14.9,> 250,20.3,,,,
COC(=O)[C@H]1CCCN1C(=O)CCSCc1ccccc1,35.7,33.9,60.2,> 250,4.11,,,,
CC1CS(=O)(=O)CCN1/N=C/c1ccc([N+](=O)[O-])o1 (stereo unspecified) [NIFURTIMOX],,,3.11,,,,,,
C[C@H](CSCc1ccccc1)C(=O)N1CCC[C@H]1C(=O)O,16.8,10.1,40.1,> 250,38.6,,,,
O=C(O)[C@@H]1CCCN1C(=O)Cc1ccccc1,14.5,13.8,46.5,> 250,40.8,,,,
COC(=O)[C@@H]1CCCN1C(=O)C(C)(C)C,14.5,17.1,66.4,> 250,58.3,,,,
CC(C)C(=O)N1CCC[C@H]1C(=O)O,5.52,8.07,61.5,> 250,12.2,,,,
CC(C)(C)C(=O)N1CCC[C@@H]1C(=O)O,48.1,41.2,80.2,> 250,106,,,,
COC(=O)[C@@H]1CCCN1C(=O)C(C)C,4.51,7.02,53.9,> 250,9.85,,,,
O=C(O)[C@H]1CCCN1C(=O)Cc1ccccc1,104,98.4,> 200,> 250,> 200,,,,
O=C(O)[C@@H]1CCCN1C(=O)CCS,9.88,7.15,20.8,> 250,28.4,,,,
